Data as given in patent publication US20110077212A1, “THERAPEUTIC USES OF SGLT2 INHIBITORS” (Theracos, Inc., priority 2009, published 2011).
Where “and” joins values, the source holds several entries; their conditions need not be identical. Equal entries are not always repeated. Structures can show the parent of a compound that is named as a salt.

What was measured:
[1] = tested on: SD Rats Fed a Pioglitazone (0.03%) Containing Diet; experiment: Plasma volume (hematocrit) of SD rats fed a pioglitazone-containing diet for 7 days; type: in vivo, Sprague-Dawley rats; conditions: for Plasma expansion versus vehicle treated rats (in words): 7 days pioglitazone diet, compound in drinking water; for Plasma Volume % DAY 1: day 1 (first day of pioglitazone 0.03% diet and compound in drinking water), amiloride 1.5 mg/kg; for Plasma Volume % DAY 1 / Plasma Volume % DELTA / Plasma Volume % DAY 7: TEST COMPOUND 4.5 mg/kg, mean ± SEM; for Plasma Volume % DELTA: day 7 minus day 1, pioglitazone 0.03% diet; for Plasma Volume % DELTA / Plasma Volume % DAY 7: amiloride 1.5 mg/kg in drinking water; for Plasma Volume % DAY 7: day 7 of pioglitazone 0.03% diet
From the text: (§1) […] On day −5 rats and water bottles were weighed and placed in the cage with ad lib access to standard rodent chow. Body weights were used to assign rats to counter-balanced groups. Daily water consumption was estimated after weighing bottles again on day −1 and used to determine the appropriate drug concentrations to achieve the desired daily doses. On day 1, rats were weighed and then received an ad mixed diet (ad lib) containing 0.03% pioglitazone in place of standard chow. Food weight was recorded in order to track consumption over the course of the experiment. At this time, rats were also given drinking water containing compound at the appropriate concentration. Full bottles were pre-weighed and recorded in order to track consumption over the course of the experiment. On day 1 and day 7, rats were warmed using a heating pad and lightly anesthetized using isoflurane (Butler Animal Health Services; Chicago, Ill.). Using a sterile scalpel blade, a small tail nick was made on the distal one third of the tail. Blood was collected in a heparinized microcapillary tube (FisherBrand; Pittsburg, Pa.), sealed with putty at one end and stored on ice until centrifugation (5000 rpm, 5 min). Plasma volume was determined using a Critocaps microhematocrit capillary tube reader card (Leica: Lot #7426). On day 7, rats, food and water bottles were again weighed and recorded, hematocrits were determined using blood collected by a tail nick. All data are presented as means +/−1 SEM. Statistical analyses were performed using GraphPad Prism statistical software. The mean differences among the treatment groups for all variables were tested for statistical significance using 2-way repeated measures ANOVAs. Additionally, differences were calculated for each animal (day 7−day 1), and resultant means were tested for statistical significance using 1-way ANOVAs.

[2] = tested on: SD Rats Fed a Pioglitazone (0.03%) Containing Diet; experiment: Body weight of SD rats fed a pioglitazone-containing diet for 7 days; type: in vivo, Sprague-Dawley rats; conditions: for Body Weight (g) DAY 1: day 1 (first day of pioglitazone 0.03% diet and compound in drinking water), amiloride 1.5 mg/kg; for Body Weight (g) DAY 1 / Body Weight (%) DELTA (percent weight gain) / Body Weight (g) DELTA (weight gain) / Body Weight (g) DAY 7 / Body Weight (%) DAY 7: TEST COMPOUND 4.5 mg/kg; for Body Weight (g) DAY 1 / Body Weight (%) DELTA (percent weight gain) / Body Weight (g) DELTA (weight gain) / Body Weight (g) DAY 7 / Body Weight (%) DAY 1 / Body Weight (%) DAY 7: mean ± SEM; for Body Weight (%) DELTA (percent weight gain): day 7 minus day 1, percent of day 1 value; for Body Weight (%) DELTA (percent weight gain) / Body Weight (g) DELTA (weight gain) / Body Weight (%) DAY 1 / Body Weight (%) DAY 7: pioglitazone 0.03% diet; for Body Weight (%) DELTA (percent weight gain) / Body Weight (g) DELTA (weight gain) / Body Weight (g) DAY 7 / Body Weight (%) DAY 7: amiloride 1.5 mg/kg in drinking water; for Body Weight (g) DELTA (weight gain): day 7 minus day 1; for Body Weight (g) DAY 7: day 7 of pioglitazone 0.03% diet; for Body Weight (%) DAY 1 / Body Weight (%) DAY 7: percent of day 1 value
From the text: as §1, with “day” for “day 1 and day 7, rats were warmed using a heating pad and lightly anesthetized using isoflurane (Butler Animal Health Services; Chicago, Ill.). Using a sterile scalpel blade, a small tail nick was made on the distal one third of the tail. Blood was collected in a heparinized microcapillary tube (FisherBrand; Pittsburg, Pa.), sealed with putty at one end and stored on ice until centrifugation (5000 rpm, 5 min). Plasma volume was determined using a Critocaps microhematocrit capillary tube reader card (Leica: Lot #7426). On day”

[3] = one week, pioglitazone 20-25 mg/kg/day in diet

Plasma expansion induced by pioglitazone (in words) [1, 3]	Structure (SMILES)	Plasma expansion versus vehicle treated rats (in words) [1]	Plasma Volume % DAY 1 [1] [%]	Plasma Volume % DELTA [1] [%]	Plasma Volume % DAY 7 [1] [%]	Body Weight (g) DAY 1 [2]	Body Weight (%) DELTA (percent weight gain) [2]	Body Weight (g) DELTA (weight gain) [2]	Body Weight (g) DAY 7 [2]	Body Weight (%) DAY 1 [2]	Body Weight (%) DAY 7 [2]	Increase in body weight induced by pioglitazone [2, 3]
	N=C(N)NC(=O)c1nc(Cl)c(N)nc1N [Amiloride, Amiloride HCl Hydrate]	significance for the observed trend toward reversal of PPAR-γ induced expansion was not achieved	52.7 ± 0.9	3.9 ± 0.7	56.6 ± 0.4	370.0 ± 6.0 g	10.8 ± 0.7%	40.0 ± 2.8 g	410.0 ± 7.7 g	100 ± 0%	110.8 ± 0.7 %	
	OC[C@H]1O[C@@H](c2ccc(Cl)c(Cc3ccc(OCCOC4CC4)cc3)c2)[C@H](O)[C@@H](O)[C@@H]1O [TEST COMPOUND, (2S,3R,4R,5S,6R)-2-(4-chloro-3-(4-(2-cyclopropoxyethoxy)benzyl)phenyl)-6-(hydroxymethyl)tetrahydro-2H-pyran-3,4,5-triol]	significantly less plasma expansion than vehicle treated rats	52.9 ± 0.5	1.8 ± 0.8	54.7 ± 0.6	371.7 ± 5.0 ^ g	4.8% and 4.8 ± 1.3 %	17.4 g and 17.5 ± 4.7 g	389.2 ± 5.7 ^†† g	100 ± 0 ^ %	104.8 ± 1.3 ^†† %	
significant plasma expansion	CCc1ccc(CCOc2ccc(CC3SC(=O)NC3=O)cc2)nc1 (stereo not shown) [pioglitazone]											approximately 45 g
